Experimental data reported in US20060069132A1, “Azolecarboxamide herbicides” (priority 2004, published 2006).

What was measured:
[1] = test system: barnyardgrass; test: Test B pre-/postemergence herbicide test; type: in vivo, Echinochloa crus-galli
Summary of the method: (§1)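 Test chemicals in a non-phytotoxic solvent mixture with surfactant were applied preemergence to seeded species and postemergence to plants 2-18 cm tall (1- to 4-leaf stage); rice and barnyardgrass were also tested in a flooded paddy at the 2-leaf stage. Visual rating versus controls after 13-15 days in greenhouse, scale 0 (no effect) to 100 (complete control).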

[2] = test system: small flower umbrella sedge; test: Test B flooded paddy test; type: in vivo, Cyperus difformis; settings: scale 0 to 100 (0 no effect, 100 complete control)
Summary of the method: (§2)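 Paddy species grown to the 2-leaf stage under flooding; blackgrass sprayed postemergence at 2–18 cm (1- to 4-leaf stage). Plants kept in a greenhouse for 13 to 15 days, then visually rated against controls on 0 (no effect) to 100 (complete control).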

[3] = test system: giant foxtail; test: Test B pre-/postemergence herbicide test; type: in vivo, Setaria faberi
Summary of the method: (§3)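 Response was scored visually 13 to 15 days after treatment against untreated greenhouse controls, 0 meaning no effect and 100 complete control. Formulations (solvent mixture plus surfactant) went onto soil after planting, onto foliage of 1- to 4-leaf plants, and onto 2-leaf plants in a flooded paddy set including rice and barnyardgrass.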

[4] = test system: velvetleaf; test: Test B pre-/postemergence herbicide test; type: in vivo, Abutilon theophrasti
Summary of the method: as §3

[5] = test system: cocklebur; test: Test B pre-/postemergence herbicide test; type: in vivo, Xanthium strumarium
Summary of the method: as §1

[6] = test system: wheat; test: Test B postemergence herbicide test; type: in vivo, Triticum aestivum; design: key to Wheat plant response rating: 0 = no effect, 100 = complete control
Summary of the method: (§4)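 Each value is a visual 0–100 response rating taken against controls 13 to 15 days after treatment in the greenhouse. Plants received formulated chemical postemergence at the 1- to 4-leaf stage or, in flooded paddy, at the 2-leaf stage.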

[7] = test system: wild oat; test: Test B postemergence herbicide test; type: in vivo, Avena fatua
Summary of the method: as §4

[8] = test system: lambsquarters; test: Test B pre-/postemergence herbicide test; type: in vivo, Chenopodium album
Summary of the method: as §3

[9] = test system: barnyardgrass; test: Test B flooded paddy test; type: in vivo, Echinochloa crus-galli; settings: scale 0 to 100 (0 no effect, 100 complete control)
Summary of the method: as §2

[10] = test system: blackgrass; test: Test B postemergence herbicide test; type: in vivo, Alopecurus myosuroides
Summary of the method: as §2

[11] = test system: corn; test: Test B pre-/postemergence herbicide test; type: in vivo, Zea mays
Summary of the method: as §3

[12] = test system: rice; test: Test B flooded paddy test; type: in vivo, Oryza sativa; settings: scale 0 to 100 (0 no effect, 100 complete control)
Summary of the method: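 Postemergence plants were sprayed with formulated test chemicals at 2 to 18 cm height (1- to 4-leaf stage); paddy species were grown to the 2-leaf stage. After 13 to 15 days in a greenhouse, injury was rated visually against untreated controls on a 0–100 scale (0 = no effect, 100 = complete control).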

[13] = test system: pigweed; test: Test B pre-/postemergence herbicide test; type: in vivo, Amaranthus retroflexus
Summary of the method: as §3

[14] = test system: Surinam grass; test: Test B pre-/postemergence herbicide test; type: in vivo, Urochloa decumbens
Summary of the method: as §3

[15] = test system: large crabgrass; test: Test B pre-/postemergence herbicide test; type: in vivo, Digitaria sanguinalis
Summary of the method: as §3

[16] = test system: ducksalad; test: Test B flooded paddy test; type: in vivo, Heteranthera limosa; settings: scale 0 to 100 (0 no effect, 100 complete control)
Summary of the method: as §2

[17] = test system: morningglory; test: Test B pre-/postemergence herbicide test; type: in vivo, Ipomoea coccinea
Summary of the method: as §1

[18] = Postemergence, 500 g ai/ha, scale 0 (no effect) to 100 (complete control)
[19] = postemergence, 125 g ai/ha, scale 0 to 100
[20] = 500 g ai/ha, visual rating 0-100, 0 no effect, 100 complete control, preemergence
[21] = postemergence, 500 g ai/ha, visual rating, scale 0 (no effect) to 100 (complete control)
[22] = postemergence, 62 g ai/ha, scale 0 to 100
[23] = 1000 g ai/ha, visual rating, 13 to 15 days

Q: How did the “Barnyardgrass plant response rating” value ([1]; Postemergence, 125 g ai/ha, scale 0 (no effect) to 100 (complete control)) turn out when `C=CCN(C(C)=O)C(=O)c1ccc(F)c(NC(=O)c2cc(C(C)(C)C)nn2CC)c1` [Compound 442] was run?
A: 10

Q: And the “Barnyardgrass plant response rating” value [1, 18]?
A: 20

Q: And the “Sedge, Umbrella plant response rating” value ([2]; 125 g ai/ha)?
A: 70

Q: What about the “Foxtail, Giant plant response rating” value [3, 18] of the same compound?
A: 20

Q: And the “Foxtail, Giant plant response rating” value [3, 19]?
A: 20

Q: What about the “Velvetleaf plant response rating” value [4, 18] of the same compound?
A: 30

Q: And the “Velvetleaf plant response rating” value [4, 19]?
A: 30

Q: And the “Cocklebur plant response rating” value [5, 18]?
A: 100

Q: What about the “Cocklebur plant response rating” value [5, 19] of the same compound?
A: 80

Q: What about the “Wheat plant response rating” value ([6]; 500 g ai/ha, scale 0 to 100, 0 no effect, 100 complete control, preemergence) of the same compound?
A: 70

Q: What about the “Wheat plant response rating” value [6, 18] of the same compound?
A: 40

Q: And the “Wheat plant response rating” value [6, 19]?
A: 20

Q: What about the “Oat, Wild plant response rating” value [7, 18] of the same compound?
A: 60

Q: And the “Oat, Wild plant response rating” value [7, 19]?
A: 50

Q: What about the “Lambsquarters plant response rating” value [8, 18] of the same compound?
A: 70

Q: And the “Lambsquarters plant response rating” value [8, 19]?
A: 40

Q: What about the “Barnyardgrass plant response rating” value ([9]; 125 g ai/ha) of the same compound?
A: 0

Q: And the “Blackgrass plant response rating” value [10, 18]?
A: 30

Q: And the “Blackgrass plant response rating” value [10, 19]?
A: 30

Q: And the “Corn plant response rating” value [11, 18]?
A: 30

Q: And the “Corn plant response rating” value [11, 19]?
A: 30

Q: And the “Rice plant response rating” value ([12]; 125 g ai/ha)?
A: 30

Q: What about the “Pigweed plant response rating” value [13, 18] of the same compound?
A: 70

Q: And the “Pigweed plant response rating” value [13, 19]?
A: 50

Q: What about the “Surinam Grass plant response rating” value [14, 18] of the same compound?
A: 20

Q: What about the “Surinam Grass plant response rating” value [14, 19] of the same compound?
A: 20

Q: And the “Crabgrass, Large plant response rating” value [15, 18]?
A: 20

Q: What about the “Crabgrass, Large plant response rating” value [15, 19] of the same compound?
A: 10

Q: And the “Ducksalad plant response rating” value ([16]; 125 g ai/ha)?
A: 10

Q: And the “Morningglory plant response rating” value [17, 18]?
A: 30

Q: And the “Morningglory plant response rating” value [17, 19]?
A: 20

Q: `C=CCn1nc(C(C)(C)C)cc1C(=O)Nc1cccc(C(C)=O)c1` [Compound 129] was tested. Which “Plant response rating, Barnyardgrass” value [1, 20] did it give?
A: 60

Q: What about the “Barnyardgrass plant response rating” value [1, 21] of the same compound?
A: 0

Q: And the “Barnyardgrass plant response rating” value [1, 22]?
A: 0

Q: And the “Sedge, Umbrella plant response rating” value [2, 23]?
A: 80

Q: And the “Plant response rating, Foxtail, Giant” value [3, 20]?
A: 20

Q: And the “Foxtail, Giant plant response rating” value [3, 21]?
A: 10

Q: What about the “Foxtail, Giant plant response rating” value [3, 22] of the same compound?
A: 10

Q: And the “Plant response rating, Velvetleaf” value [4, 20]?
A: 10

Q: And the “Velvetleaf plant response rating” value [4, 21]?
A: 20

Q: What about the “Velvetleaf plant response rating” value [4, 22] of the same compound?
A: 0

Q: And the “Plant response rating, Cocklebur” value [5, 20]?
A: 20

Q: And the “Cocklebur plant response rating” value [5, 21]?
A: 60

Q: What about the “Cocklebur plant response rating” value [5, 22] of the same compound?
A: 60

Q: What about the “Wheat plant response rating” value [6, 21] of the same compound?
A: 0

Q: And the “Wheat plant response rating” value [6, 22]?
A: 0

Q: And the “Oat, Wild plant response rating” value [7, 21]?
A: 0

Q: What about the “Oat, Wild plant response rating” value [7, 22] of the same compound?
A: 0

Q: And the “Plant response rating, Lambsquarters” value [8, 20]?
A: 20

Q: And the “Lambsquarters plant response rating” value [8, 21]?
A: 10

Q: And the “Lambsquarters plant response rating” value [8, 22]?
A: 0

Q: And the “Barnyardgrass plant response rating” value [9, 23]?
A: 30

Q: What about the “Blackgrass plant response rating” value [10, 21] of the same compound?
A: 0

Q: What about the “Blackgrass plant response rating” value [10, 22] of the same compound?
A: 0

Q: What about the “Plant response rating, Corn” value [11, 20] of the same compound?
A: 0

Q: And the “Rice plant response rating” value [12, 23]?
A: 10

Q: What about the “Plant response rating, Pigweed” value [13, 20] of the same compound?
A: 30

Q: What about the “Pigweed plant response rating” value [13, 21] of the same compound?
A: 10

Q: What about the “Pigweed plant response rating” value [13, 22] of the same compound?
A: 0

Q: What about the “Plant response rating, Surinam Grass” value [14, 20] of the same compound?
A: 10

Q: And the “Surinam Grass plant response rating” value [14, 21]?
A: 20

Q: And the “Surinam Grass plant response rating” value [14, 22]?
A: 0

Q: And the “Plant response rating, Crabgrass, Large” value [15, 20]?
A: 90

Q: What about the “Crabgrass, Large plant response rating” value [15, 21] of the same compound?
A: 10

Q: What about the “Crabgrass, Large plant response rating” value [15, 22] of the same compound?
A: 0

Q: What about the “Ducksalad plant response rating” value [16, 23] of the same compound?
A: 70

Q: What about the “Plant response rating, Morningglory” value [17, 20] of the same compound?
A: 0
